Source: patent publication US10034477B2, “Pyrido-1,3-oxazine-2,4-dione compounds with fungicidal activity” (Dow AgroSciences LLC, priority 2016, dated 2018)
Read-outs that look alike come from different tables or passages of the source.

Legend:
Format in all cases: in vivo
[1] = test system: Puccinia triticina; test: Fungicidal activity: wheat brown rust (PUCCRT), disease control on wheat seedlings; conditions: LV activity at 121.5 g/H, wheat (variety Yuma)
Description: (§1) Technical grades of materials were dissolved in acetone, which were then mixed with nine volumes of water (H2O) containing 110 ppm Triton X-100. The fungicide solutions were applied onto wheat seedlings using an automated booth sprayer to run-off. All sprayed plants were allowed to air dry prior to further handling. All fungicides were evaluated using the aforementioned method for their activity vs. all target diseases, unless stated otherwise. Wheat leaf blotch and brown rust activity were also evaluated using track spray applications, in which case the fungicides were formulated as EC formulations, containing 0.1% Trycol 5941 in the spray solutions. Wheat plants (variety Yuma) were grown from seed in a greenhouse in 50% mineral soil/50% soil-less Metro mix until the first leaf was fully emerged, with 7-10 seedlings per pot. These plants were inoculated with an aqueous spore suspension of Zymoseptoria tritici either prior to or after fungicide treatments. After inoculation the plants were kept in 100% relative humidity (one day in a dark dew chamber followed by two to three days in a lighted dew chamber at 20° C.) to permit spores to germinate and infect the leaf. The plants were then transferred to a greenhouse set at 20° C. for disease to develop. When disease symptoms were fully expressed on the 1st leaves of untreated plants, infection levels were assessed on a scale of 0 to 100 percent disease severity. Percent disease control was calculated using the ratio of disease severity on treated plants relative to untreated plants. Wheat plants (variety Yuma) were grown from seed in a greenhouse in 50% mineral soil/50% soil-less Metro mix until the first leaf was fully emerged, with 7-10 seedlings per pot. These plants were inoculated with an aqueous spore suspension of Puccinia triticina either prior to or after fungicide treatments. After inoculation the plants were kept in a dark dew room at 22° C. with 100% relative humidity overnight to permit spores to germinate and infect the leaf. The plants were then transferred to a greenhouse set at 24° C. for disease to develop. Fungicide formulation, application and disease assessment followed the procedures as described in the Example A. Results of the evaluations are shown below in Table 4.

[2] = test system: Zymoseptoria tritici; test: Fungicidal activity: leaf blotch of wheat (SEPTTR), disease control on wheat seedlings; conditions: LV activity at 121.5 g/H, wheat (variety Yuma)
Description: as §1, with “plants.” for “plants. Wheat plants (variety Yuma) were grown from seed in a greenhouse in 50% mineral soil/50% soil-less Metro mix until the first leaf was fully emerged, with 7-10 seedlings per pot. These plants were inoculated with an aqueous spore suspension of Puccinia triticina either prior to or after fungicide treatments. After inoculation the plants were kept in a dark dew room at 22° C. with 100% relative humidity overnight to permit spores to germinate and infect the leaf. The plants were then transferred to a greenhouse set at 24° C. for disease to develop. Fungicide formulation, application and disease assessment followed the procedures as described in the Example A. Results of the evaluations are shown below in Table 4.”

[3] = test system: Phakopsora pachyrhizi; test: Fungicidal activity: Asian soybean rust (PHAKPA), disease control on soybean seedlings; conditions: soybean (variety Williams 82)
Description: Technical grades of materials were dissolved in acetone, which were then mixed with nine volumes of H2O containing 0.011% Tween 20. The fungicide solutions were applied onto soybean seedlings using an automated booth sprayer to run-off. All sprayed plants were allowed to air dry prior to further handling. Soybean plants (variety Williams 82) were grown in soil-less Metro mix, with one plant per pot. Two week old seedlings were used for testing. Plants were inoculated either 3 days prior to or 1 day after fungicide treatments. Plants were incubated for 24 h in a dark dew room at 22° C. and 100% relative humidity then transferred to a growth room at 23° C. for disease to develop. Disease severity was assessed on the sprayed leaves.

[4] = 24 h, 1 Day Protectant, read-out: PUCCRT 1DP disease control rating
[5] = 72 h, 3 Day Curative, read-out: PUCCRT 3DC disease control rating
[6] = 24 h, 1 Day Protectant, read-out: SEPTTR 1DP disease control rating
[7] = 72 h, 3 Day Curative, read-out: SEPTTR 3DC disease control rating
[8] = 72 h, 3 Day Curative, read-out: PHAKPA 3DC disease control rating
[9] = 24 h, 1 Day Protectant, read-out: PHAKPA 1DP disease control rating

SMILES	pest or weed control at 121.5 g/ha [1, 4]	pest or weed control at 121.5 g/ha [1, 5]	pest or weed control at 121.5 g/ha [2, 6]	pest or weed control at 121.5 g/ha [2, 7]	pest or weed control at 25 ppm [3, 8]	pest or weed control at 25 ppm [3, 9]
COc1ccnc2c(=O)n([C@@H](C)C(=O)O[C@@H](C)C(c3ccc(F)cc3F)c3ccc(F)cc3F)c(=O)oc12 [Compound 2]	> 80%	≤ 80%	> 80%	> 80%		
COc1ccnc2c(=O)n([C@@H](C)C(=O)O[C@@H](C)[C@H](Oc3ccccc3)C(C)(C)C)c(=O)oc12 [Compound 4]	> 80%	> 80%		≤ 80%		
CCC(CC)[C@@H](Oc1ccc(Cl)cc1)[C@H](C)OC(=O)[C@H](C)n1c(=O)oc2c(OC)ccnc2c1=O [Compound 5]	> 80%	≤ 80%	> 80%	≤ 80%		
CC[C@H](OC(=O)[C@H](C)n1c(=O)oc2c(OC)ccnc2c1=O)[C@@H](C)Oc1ccccc1 [Compound 6]		≤ 80%		≤ 80%		
COc1cc(F)ccc1[C@@H](c1ccc(F)c(C)c1)[C@H](C)OC(=O)[C@H](C)n1c(=O)oc2c(OC)ccnc2c1=O [Compound 7]	> 80%		> 80%	> 80%		
COc1ccc(C(c2ccc(OC)cc2OC)[C@H](C)OC(=O)[C@H](C)n2c(=O)oc3c(OC)ccnc3c2=O)c(OC)c1 [Compound 8]	≤ 80%	≤ 80%	> 80%	> 80%		
CCC(CC)[C@@H](Oc1cccc(Cl)c1)[C@H](C)OC(=O)[C@H](C)n1c(=O)oc2c(OC)ccnc2c1=O [Compound 9]	> 80%	≤ 80%	≤ 80%	≤ 80%		
CCC[C@@H](Oc1cccc(OC)c1)[C@H](C)OC(=O)[C@H](C)n1c(=O)oc2c(OC)ccnc2c1=O [Compound 10]	> 80%	> 80%		> 80%		
COc1ccnc2c(=O)n([C@@H](C)C(=O)O[C@@H](C)[C@H](c3ccc(F)cc3)c3ccc(F)cc3C)c(=O)oc12 [Compound 11]	≤ 80%		> 80%	> 80%		
CCCCC[C@H](OC(=O)[C@H](C)n1c(=O)oc2c(OC)ccnc2c1=O)[C@@H](C)Oc1ccccc1 [Compound 13]			≤ 80%	≤ 80%	≤ 80%	
COc1ccnc2c(=O)n([C@@H](C)C(=O)O[C@@H](C)C(c3cccc(F)c3)c3cccc(F)c3)c(=O)oc12 [Compound 14]	≤ 80%	≤ 80%	> 80%	> 80%		
COc1ccnc2c(=O)n([C@@H](C)C(=O)O[C@@H](C)[C@H](Oc3ccccc3)c3ccc(F)cc3Cl)c(=O)oc12 [Compound 15]	> 80%	≤ 80%	> 80%	> 80%		
CCC(CC)[C@@H](Oc1ccccc1Cl)[C@H](C)OC(=O)[C@H](C)n1c(=O)oc2c(OC)ccnc2c1=O [Compound 16]	> 80%	≤ 80%	≤ 80%	> 80%		
COc1ccnc2c(=O)n([C@@H](C)C(=O)O[C@@H](C)[C@H](c3ccccc3)c3ccc(C)cc3F)c(=O)oc12 [Compound 17]	> 80%		> 80%	> 80%		
COc1ccc(C(c2ccc(OC)cc2)[C@H](C)OC(=O)[C@H](C)n2c(=O)oc3c(OC)ccnc3c2=O)cc1 [Compound 18]	> 80%	≤ 80%	> 80%	> 80%	≤ 80%	≤ 80%
COc1ccnc2c(=O)n([C@@H](C)C(=O)O[C@@H](C)[C@@H](c3ccc(F)cc3)c3ccc(F)cc3C)c(=O)oc12 [Compound 19]	> 80%	≤ 80%	> 80%	> 80%	≤ 80%	> 80%
COc1cc(F)ccc1[C@@H](c1ccc(F)cc1)[C@H](C)OC(=O)[C@H](C)n1c(=O)oc2c(OC)ccnc2c1=O [Compound 20]	> 80%	≤ 80%	> 80%	> 80%		
COc1ccnc2c(=O)n([C@@H](C)C(=O)O[C@@H](C)[C@H](Oc3ccccc3Cl)c3ccccc3)c(=O)oc12 [Compound 21]	> 80%		> 80%	≤ 80%	≤ 80%	
COc1ccnc2c(=O)n([C@@H](C)C(=O)O[C@@H](C)[C@@H](c3ccccc3)c3ccc(F)c(C)c3)c(=O)oc12 [Compound 22]	> 80%	≤ 80%	> 80%	> 80%	≤ 80%	≤ 80%
COc1ccc(O[C@@H](C)[C@H](OC(=O)[C@H](C)n2c(=O)oc3c(OC)ccnc3c2=O)C(C)C)cc1 [Compound 23]	> 80%	> 80%	≤ 80%	> 80%	≤ 80%	> 80%
COc1ccnc2c(=O)n([C@@H](C)C(=O)O[C@@H](C)[C@H](Oc3cccc(F)c3)C(C)C)c(=O)oc12 [Compound 24]	> 80%	> 80%	≤ 80%	> 80%	≤ 80%	> 80%
COc1ccnc2c(=O)n([C@@H](C)C(=O)O[C@@H](C)[C@H](c3ccc(C)cc3)c3ccc(C)cc3F)c(=O)oc12 [Compound 25]	> 80%	≤ 80%	> 80%	> 80%		≤ 80%
COc1ccnc2c(=O)n([C@@H](C)C(=O)O[C@H](C)C(c3ccc(F)cc3)c3ccc(F)cc3)c(=O)oc12 [Compound 29]				≤ 80%	≤ 80%	
COc1ccnc2c(=O)n([C@H](C)C(=O)O[C@H](C)C(c3ccc(F)cc3)c3ccc(F)cc3)c(=O)oc12 [Compound 34]					≤ 80%	≤ 80%
CCC[C@H](OC(=O)[C@H](C)n1c(=O)oc2c(OC)ccnc2c1=O)[C@@H](C)Oc1ccccc1 [Compound 35]				≤ 80%	≤ 80%	
